Measured values: patent US9273088B2, “Ginsenoside derivative compounds and the use thereof in protection against ischemia/reperfusion injury” (Macau University of Science and Technology, priority 2013, dated 2016)

What was measured:
[1] = tested on: H9c2 cells; test: Hypoxia/reoxygenation (H/R) injury model, MTT cell viability assay; type: cell-based, rat; conditions: for order of cardioprotective effects: rank order of the 7 derivative compounds; for order of cardioprotective effects / viability of cardiomyocyte cells after H/R (ratio of viable cells relative to normoxia control) / protective effect compared with the positive control drug: hypoxia/reoxygenation; for viability of cardiomyocyte cells after H/R (ratio of viable cells relative to normoxia control): mean±SEM; for protective effect compared with the positive control drug: vs diazoxide 50 μM
Protocol: (§1) Embryonic rat heart derived cell line H9c2 (2-1), shorted in H9c2 cells, was purchased from ATCC (CRL-1446), which is a permanent cell line and derived from embryonic BDIX rat ventricular heart tissue. Dulbecco's Modified Eagle Medium, Fetal Bovine Serum, and Penicillin-Streptomycin-Glutamine, 2.5% Trypsin/EDTA solution, Phosphate-buffered saline from GIBCO® (Invitrogen™) were used.
(§2) H9c2 cells were cultured in DMEM medium supplemented with 10% fetal bovine serum, 1% glutamine, 50 U/ml penicillin and […] streptomycin. The culture atmosphere for H9c2 cells was 95% air with 5% carbon dioxide (CO2) at 37.0° C. The medium was replaced every 2-3 days. A stock of cells was grown in a 100 cm^2 culture dish and split before confluence at a subcultivation ratio of 1:4. Cells used for experiments were seeded at a density of 1.0×10^4 cells/well in a 96-well culture plate, and cells in each well were allowed to grow to 60-80% confluence within 24 h prior to drug treatment.
After treatment with desired concentrations of drug for 3 h, the cells were washed twice with Krebs-Ringer Bicarbonate buffer (KRB; 115 mM NaCl, 4.7 mM KCl, 2.5 mM CaCl2, 1.2 mM KH2PO4, 1.2 mM MgSO4, 24 mM NaHCO3, 10 mM HEPES; pH 7.4). Aliquots of KRB supplemented with 0.01% (w/v) BSA were added to the cells immediately prior to hypoxia. A Billups-Rothenberg modular incubator chamber (Billups-Rothenberg, Inc.; DelMar, Calif.) was used to produce an in vitro Hypoxia/Reoxygenation challenge. In essence, cells were placed in the sealed chamber and the chamber was flushed with 100% nitrogen for 5 min at a flow rate of 25 liter/min. After closing all sealable connectors, the chamber was transferred to an incubator and the cells in the chamber were subjected to a period of hypoxia at 37° C. Reoxygenation was initiated by opening the chamber and then replacing the KRB with fresh DMEM medium. The cells were then cultured in the incubator under an atmosphere of 5% (v/v) CO2 in air at 37° C. for designed periods.
(§3) The cell viability was measured using the MTT colorimetric assay, which was based on the conversion of MTT to formazan crystals by mitochondrial dehydrogenase. Briefly, H9c2 cells were seeded in 96-well plates at 1×10^4 cells/well and incubated at 37° C. for 48 h. The cells were then treated with DMSO (H/R control), diazoxide (50 μM). Compounds A-G (at two concentrations of 12.5 μM or 25 μM) and incubated under hypoxia condition. The cells without any treatment and incubated under normoxia condition were used as normal control. At the end of the treatments, […] MTT (5 mg/ml) was added for 4 h and then […] MTT buffer (10% SDS solution, pH7.4) was added to each well. After overnight incubation and 30 s vibration, the absorbance was read at 490 nm wavelength. Results were expressed as the ratio of the number of viable cells with treatments relative to that of the normoxia control.
Data were expressed as mean±SEM. One-way ANOVA with multiple comparisons using the Dunnett's Multiple Comparison Test was used to analyze differences between groups. All statistical analysis was performed using Prism 5 for Windows version 5.00 (GraphPad software, Inc., La Jolla, Calif. 92037 USA). Differences were considered significant if p<0.05.

[2] = tested on: H9c2 cells; test: Cytotoxicity study in normoxia condition, MTT cell viability assay; type: cell-based, rat
Protocol: as §1, §2, §3
The cell line and reagents used, and cell culture methods, cell viability assay and statistical analysis employed were described in Example 2.
The cells were treated with desired concentrations of compounds A-G for 3 h, then the medium thereof was replaced with DMEM medium with 10% fetal bovine serum, 1% glutamine, 50 U/ml penicillin and […] streptomycin. The culture atmosphere for normaxia condition was 95% air with 5% carbon dioxide (CO2) at 37.0° C. The cells were then cultured in the incubator for designed periods. The cells without any treatment and incubated under normoxia condition were used as positive control.
Results were expressed as the ratio of the number of viable cells with treatments relative to that of the positive control.

Row | Molecule | order of cardioprotective effects [1] | cytotoxicity under normoxia condition ([2]; equivalent dosages) | protective effect compared with the positive control drug ([1]; 12.5 or 25 μM) | further results
1 | CC(C)=CCC[C@](C)(O)[C@H]1CC[C@]2(C)[C@@H]1[C@H](O)C[C@@H]1[C@@]3(C)CC[C@H](O[C@@H]4O[C@H](CO)[C@@H](O)[C@H](O)[C@H]4O[C@@H]4O[C@H](CO)[C@@H](O)[C@H](O)[C@H]4O)C(C)(C)[C@@H]3CC[C@]12C [Rg3, reference compound] | – | – | – | protective effect against I/R injury induced by hypoxia/reoxygenation, compared with H/R control group ([1]; 12.5 or 25 μM): have protective effect
2 | 3-O-[β-D-glucopyranosyl(1→2)-β-D-glucopyranosyl]-3β,12β,20(S),25-tetra-hydroxydammar-23-ene [Compound B] | G>F>C>A>D>B, E | – | – | –
3 | CC1=NS(=O)(=O)c2cc(Cl)ccc2N1 [Positive 50, diazoxide, reference compound] | – | – | – | viability of cardiomyocyte cells after H/R (ratio of viable cells relative to normoxia control) ([1]; 50 μM positive control, p<0.001): 61.69±0.37%
4 | 3-O-[β-D-glucopyranosyl(1→2)-β-D-glucopyranosyl]-20(R), 24(S)-epoxydammarane-3β,12β-triol and its 24(R) epimer [Compound E] | G>F>C>A>D>B, E | no significant cytotoxicity | – | –
5 | 3-O-[β-D-glucopyranosyl(1→2)-β-D-glucopyranosyl]-3β,12β,20(R), 25-tetrahydroxydammar-23-ene [Compound D] | G>F>C>A>D>B, E | no significant cytotoxicity | higher than the positive control drug | viability of cardiomyocyte cells after H/R (ratio of viable cells relative to normoxia control) ([1]; 25 μM, 3 h pretreatment): 61.06±0.30%
6 | 3-O-[β-D-glucopyranosyl(1→2)-β-D-glucopyranosyl]-3β,12β,20(S), 24(S)-tetrahydroxydammar-25-ene and its 24(R) epimer [Compound A] | G>F>C>A>D>B, E | no significant cytotoxicity | higher than the positive control drug | cytotoxicity under normoxia condition ([2]; 12.5 μM, vs untreated control): no statistically significant cytotoxicity; cytotoxicity under normoxia condition ([2]; 25 μM, vs untreated control): no statistically significant cytotoxicity
7 | 3-O-[β-D-glucopyranosyl(1→2)-β-D-glucopyranosyl]-3β,12β,20(R), 24(S)-tetrahydroxydammar-25-ene and its 24(R) epimer [Compound C] | G>F>C>A>D>B, E | no significant cytotoxicity | higher than the positive control drug | –
